Assay results published in patent publication US20120177567A1, “Methods of Treating Pediatric Acute Lymphoblastic Leukemia with an Anti-CD22 Immunotoxin” (priority 2010, published 2012).
Where two headings read alike, the source gives them in different places.

How the values were obtained:
[1] = system: B-lineage ALL cells; test: cells; conditions: Homo sapiens
Source text: Blood and bone marrow samples were obtained from 35 patients with B-lineage ALL (Table SI) treated at the National Cancer Institute (NCI), St Jude Children's Research Hospital (SJCRH) or Johns Hopkins Hospital (JHH) with informed consent. The majority (n=22) were obtained from individuals with multiply relapsed ALL who were referred to the NCI for Phase I clinical trial participation. Thirteen patient samples from initial diagnosis were randomly selected from those available in the tumor banks at SJCRH and JHH. Thirty-three cases were characterized as pre-B ALL by flow cytometry and two as Burkitt-type/mature B-cell ALL. In all cases, >80% blasts expressed CD19 and CD22 antigens by flow cytometry. Cells were cryopreserved in RPMI-1640 medium with 10% fetal bovine serum (FBS) and 10% dimethyl sulfoxide.
Briefly, human bone marrow stromal cells that had been immortalized by telomerase transfection (developed at St Jude Children's Research Hospital) were cultured in RPMI-1640 medium (Invitrogen, Carlsbad, Calif., USA) with 10% fetal calf serum (Sigma-Aldrich, St Louis, Mo., USA). 2×10^4 Stromal cells were plated into each well of flat-bottomed 96-well plates and cultured until confluent. On day 1 of the assay, ALL cells were resuspended in RPMI-1640 medium, 10% heat-inactivated FBS, glutamine (1×) and sodium pyruvate (1×). 3×10^5 ALL cells were added to each well of stroma-coated plates. […] SS1P (50 ng/mL), an antimesothelin Pseudomonas immunotoxin, was used as a negative control. The cytotoxicity of dexamethasone (10 μmol/L) was also tested in this assay. Cells were incubated for a further 72 h in a humidified atmosphere at 37° C. with 5% CO2.
The cells were harvested by vigorous pipetting, transferred to Falcon tubes (Cat. No. 352052; BD Biosciences, San Jose, Calif., USA) and labelled with mouse anti-human CD19 antibody conjugated to fluorescein isothiocyanate (Cat. No. 555412; BD Pharmingen, San Jose, Calif., USA). […] The cells were analysed with a FACScalibur flow cytometer in combination with CellQuest (Becton Dickinson, Franklin Lakes, N.J., USA) and FlowJo software (Tree Star Inc., Ashland, Oreg., USA).
Viability was assessed by setting gates based on the light scatter properties of the blasts. Due to spontaneous cell death, the relative percentage of viable cells at the end of the assay was calculated using the following formula: (no. of CD19^+ viable cells recovered in test well/no. of CD19^+ viable cells in untreated well×100). […]
An exact Wilcoxon rank sum test was used to determine the statistical significance of the difference in unpaired observations between two groups of pediatric patients. […] Correlations between parameters were evaluated using Spearman rank correlation analysis.

[2] = system: human bone marrow stromal cells; conditions: 10 μmol/L, 72 h
Procedure: 2×10^4 Stromal cells were plated into each well of flat-bottomed 96-well plates and cultured until confluent. On day 1 of the assay, ALL cells were resuspended in RPMI-1640 medium, 10% heat-inactivated FBS, glutamine (1×) and sodium pyruvate (1×). 3×10^5 ALL cells were added to each well of stroma-coated plates. […] SS1P (50 ng/mL), an antimesothelin Pseudomonas immunotoxin, was used as a negative control. The cytotoxicity of dexamethasone (10 μmol/L) was also tested in this assay. Cells were incubated for a further 72 h in a humidified atmosphere at 37° C. with 5% CO2.
At the end of the assay, the stromal cells were incubated with WST-1.

In the case of C[C@@H]1C[C@H]2[C@@H]3CCC4=CC(=O)C=C[C@]4(C)[C@@]3(F)[C@@H](O)C[C@]2(C)[C@@]1(O)C(=O)CO [dexamethasone, Dexamethasone], the viability at 10 µM ([1]; 72 h, read-out: percentage of viable ALL cells, range, 10 μmol/l, 72 h) is reported as 4 to 158%, the viability at 10 µM ([1]; read-out: percentage of viable ALL cells, median, 10 μmol/l, ALL samples from diagnosis) is reported as 29% and the viability at 10 µM ([1]; read-out: percentage of viable ALL cells, median, 10 μmol/l, all samples) is reported as 40%. For the same compound, the viability at 10 µM ([1]; read-out: percentage of viable ALL cells, median, 10 μmol/l, relapse samples) was 42% and the “stromal cells compared to untreated controls (WST-1)” value [2] was “no difference”.
